Laboratory results as given in patent US9045401B2, “Methods for treating or ameliorating a melanoma and killing melanoma cells” (THE REGENTS OF THE UNIVERSITY OF CALIFORNIA, priority 2007, dated 2015).
≈ marks a conversion by molar mass, not a printed value.

Legend:
[1] = test system: chick chorioallantoic membrane; assay: bFGF-induced angiogenesis in chick chorioallantoic membrane; assay type: in vivo; details: local introduction, 100 ng bFGF disks, 72 hours
Description: FIG. 31(A-F): Transgenic Tg(fli1:EGFP) zebrafish embryos in which GFP is expressed in endothelial cells were incubated without (A) or with increasing concentrations of ScA: 80 nM in FIG. 31(B), 160 nM in FIG. 31(C), 300 nM in FIG. 31(D) 1.6 μM in FIG. 31(E) or 3 μM in FIG. 31(F), and blood vessel morphology recorded by fluorescence microscopy. FIG. 31(G) Filter disks impregnated with 100 ng of bFGF were placed on the chorioallantoic membrane of eleven day old chicks to induce angiogenesis in the absence or presence of ScA, as shown. After 72 hours (h), disks were removed and the vascularity of the underlying chorioallantoic membrane determined by direct counting of branch points using a dissecting microscope. FIG. 31(H): NB7 neuroblastoma cells lacking caspase 8 (filled bar) or NB7-C8 cells reconstituted for caspase 8 expression (open bars) were seeded into ten day old chick chorioallantoic membranes to form tumors. After 72 hours, ScA was added topically to each growing tumor mass. Tumors were harvested and resected on day 8, and mass (wet weight) determined. Data shown is the mean±SD (N=8-12).
Chick Chorioallantoic membrane studies. The CAM studies were performed using 10 day old chick embryos as we've previously described (36). […]

A-549 cells = assay: cell toxicity studies by microscopy; assay type: cell-based, human; details: for cell state by microscopy: 24 h
Description: FIG. 7 illustrates cell toxicity studies using A-549 cells and somocystinamide A (ScA); FIG. 7A illustrates microscopy images of cells with DMSO (1%) as a control at 24 h; FIG. 7B-ScA (WG-144) on A-549 cells at 100 nM 24 h; FIG. 7C-ScA (WG-144) on A549 cells 1.0 uM 24 h; FIG. 7D-ScA (WG-144) on A549 cells, 10 uM, 24 h. In FIG. 7A, the negative control (no ScA) the live cells are confluent.
FIG. 28(B): A549 cells were fixed and costained using antibodies directed against ceramide (red channel) (Bars in A/B=[…]). Arrows indicate regions of “blebbing.” The nuclear compartment was visualized using DAPI to stain DNA (blue channel). The assessments were performed two hours after treatment with 300 nM ScA. FIG. 28(C): Immunoblot analysis of Jurkat cells was performed following treatment with 100 nM ScA. 25 μg of cell lysates was probed for caspases 8, 3 and 9 and for PARP and actin (loading control) as indicated. FIG. 28(D): Caspase 8 deficient (Casp 8), FADD deficient (FADD −) or parental Jurkat cells (Jurkat) were incubated with 50 or 300 nM for 6 hours and analyzed for the presence of apoptotic cells via FACs analysis of DNA content. Results shown are the mean and standard error of triplicate determinations. FIG. 28(E): A549 cells subjected to lentivirus-delivered shRNA-mediated knockdown of caspase 8, or treated with a scrambled shRNA lentivirus. Cells were then cultured in the presence of increasing doses of ScA, as indicated. Viability was measured by XTT assay after 72 hours, and normalized to controls not treated with drug. FIG. 28(F): similarly, the viability of neuroblastoma cultures deficient in caspase expression, or reconstituted for caspase 8 expression, was determined as for the A549 cells above. Both experiments are representative, with each point shown the mean±SE of triplicate wells.

Jurkat cells = assay: apoptosis of Jurkat cells by FACS analysis of DNA content; assay type: cell-based; details: 50 or 300 nM, 6 hours
Description: FIG. 28(B): A549 cells were fixed and costained using antibodies directed against ceramide (red channel) (Bars in A/B=[…]). Arrows indicate regions of “blebbing.” The nuclear compartment was visualized using DAPI to stain DNA (blue channel). The assessments were performed two hours after treatment with 300 nM ScA. FIG. 28(C): Immunoblot analysis of Jurkat cells was performed following treatment with 100 nM ScA. 25 μg of cell lysates was probed for caspases 8, 3 and 9 and for PARP and actin (loading control) as indicated. FIG. 28(D): Caspase 8 deficient (Casp 8), FADD deficient (FADD −) or parental Jurkat cells (Jurkat) were incubated with 50 or 300 nM for 6 hours and analyzed for the presence of apoptotic cells via FACs analysis of DNA content. Results shown are the mean and standard error of triplicate determinations. […] Viability was measured by XTT assay after 72 hours, and normalized to controls not treated with drug. FIG. 28(F): similarly, the viability of neuroblastoma cultures deficient in caspase expression, or reconstituted for caspase 8 expression, was determined as for the A549 cells above. […]
FACS analysis Cell viability was analyzed by flow cytometry following propidium iodide (PI) staining, as described elsewhere (37). […] The extent of apoptosis was determined by plotting PI fluorescence versus the forward scatter parameter, using CELL QUEST™ software.

NB7 neuroblastoma cells = assay: XTT cell proliferation assay; assay type: cell-based; details: Homo sapiens, anti-proliferative effect, FIG. 6, caspase 8 deficient
Description: Cell lines. Cells and cell lines were maintained in either DMEM or RPMI supplemented with 10% FCS. The caspase-deficient NB7 neuroblastoma cells have been previously described (33). C8-deficient and reconstituted jurkat cells were provided by Dr. Steve Hedrick (UCSD). Silencing of Caspase-8 gene expression in the A549 cells was performed through the use of delivering shRNA in a lentiviral format. Briefly 293 T cells were transfected with caspase-8, (Open Biosystems) or scrambled (Addgene) shRNAs in pLK0.1 lentiviral vector, together with lentiviral packaging plasmids (PMLDL, VSV-G and RSV-REV) using fugene6. The ratio of target ShRNAs and packaging plasmids was ShRNA/PMLDL/VSV-G/RSV-REV, 10/10/6/4 μg. Lentiviral supernatants from 293 T cells were harvested after 48 hours and used to infect A549 cells. Viral constructs were incubated for 24 h with A549 cell lines prior to replacing media with selective media containing puromycin (1 μg/ml). […]
Cytotoxicity Assay. Cytotoxicity of ScA was assessed using the XTT cell proliferation assay. […] The plates were then incubated under standard tissue culture conditions until the control wells (DMSO) reached an OD value between 1.0-1.5. as measured at 450 nm using a microtiter plate reader. The cell viability-drug dilution profiles were obtained from sigma plots, and drug concentrations which inhibited growth by 50% were calculated from multiple runs. […]

[2] = test system: mouse neuro-2a neuroblastoma cells; details: cytotoxicity; cited from earlier work

**Q.** Which results are given for `C=CC/C=C/N(C)C(=O)CCCCCCCC/C=C/[C@H](CSSC[C@@H](/C=C/CCCCCCCCC(=O)N(C)/C=C/CC=C)NC(C)=O)NC(C)=O` [somocystinamide A, Somocystinamide A]?
**A.** growth factor-induced angiogenesis [1]: potently blocked growth factor-induced angiogenesis; cell morphology, bright field microscopy (A-549 cells; 100 nM ScA, FIG. 28A): induces a blebbing morphology; cell state by microscopy (A-549 cells; 100 nM): transitioning to apoptosis; cell state by microscopy (A-549 cells; 1.0 uM): in a state of apoptosis but no lysis; cell state by microscopy (A-549 cells; 10 uM): in total lysis; ScA-mediated killing (Jurkat cells; Jurkat cells lacking FADD): protected from ScA-mediated killing; apoptosis (Jurkat cells; caspase 8-deficient Jurkat cells compared to wild type): dramatically decreased; IC50 (NB7 neuroblastoma cells): 810 nM; IC50 [2]: 1.4 µg/mL (≈ 1.84 µM)
